Experimental data taken from a melting point compilation (Tetko et al.; mined from patent text by program, amines drawn as free bases though some values may be those of a salt).

Compound | melting point [°C]
OCCCc1nc(-c2ccccc2)co1 | 55 to 56
O=[N+]([O-])C(CN1CCOCC1)=C1NCCCS1 | 131 to 132
CCOC(=O)C(=O)Nc1nc(C)cs1 | 171 to 173
N#CC1CC(c2c(F)cccc2F)=NC1c1ccc(-c2ccc(OC(F)(F)F)cc2)cc1 (configuration not stated) | 145
CCN1CCN(c2cc3c(cc2F)c(=O)c(C(=O)O)cn3CC)CC1C (configuration not stated) | 203 to 205
COC(=O)c1ccc(C(=O)N2CCN(C(=O)c3ccc(C(=O)OC)cc3)CC2)cc1 | 234 to 237
CC(=O)N1c2ccc(F)cc2CC1C#N (configuration not stated) | 93 to 95
C=CC(=O)OCCCCCCCCOc1ccc(C(=O)O)cc1 | 157 to 158
CC(C)(C(=O)c1ccc(F)cc1)N1CCOCC1 | 63 to 66
O=C(Nc1ccccc1)c1cccc([N+](=O)[O-])c1 | 153 to 154
CCN(CC)C(=O)C1CCCN(C(=O)CN(C(=O)CNC(=O)Nc2cccc(C)c2)c2ccccc2)C1 (racemic) | 156
CC(C#N)(Sc1nc2ccccc2s1)c1ccc(C(=O)c2cccs2)cc1 (configuration not stated) | 104 to 107
O=C(c1ccc(O)c(Cl)c1)N1CC=CCC1 | 186 to 189
Cc1cccc(-c2nc(NC(=O)Cc3ccccc3)sc2-c2ccnc(NC(=O)Cc3ccccc3)n2)c1 | 110 to 113
CCc1nc2c(N)nc3ccccc3c2n1CCCS(=O)(=O)NC | 225 to 228
CC(=O)OC12Oc3cc(C(C)C)ccc3C1(OC(C)=O)C(=O)c1ccccc12 (configuration not stated) | 138 to 140
N#CC1CN1C(=O)c1ccc(S(N)(=O)=O)cc1 (configuration not stated) | 145 to 146
CSc1c(O[C@@H]2CCC[C@H](N)C2)ccc2[nH]ncc12 (relative stereo) | 112 to 113
ClC1=Nc2ccccc2Sc2ncccc21 | 134 to 135
COc1cc(O)cc(Cl)c1 | 94 to 96
CS(=O)(=O)c1ccc(-c2cnn(CC(F)(F)F)c(=O)c2NCC2CC2)cc1 | 145 to 146

Compound | melting point [°C]
Cn1c(=O)c(-c2c(Cl)cccc2Cl)cc2cnc(S(C)(=O)=O)nc21 | > 290
CC1CC2C3CCC4=CC(=O)C=CC4(C)C3=CCC2(C)C1C(=O)COS(=O)(=O)c1ccc(Br)cc1 (configuration not stated) | 124 to 129
CC12CCC3C(CCC4=CC(=O)CCC43C=O)C1CCC2O (configuration not stated) | 125 to 127
S=c1[nH]c(=S)c2ccccc2[nH]1 | 234 to 237
Cn1nc(C(F)(F)F)c(C(O)=C(Br)n2ccc(-c3c(F)cccc3F)n2)c1Cl | 123 to 125
N#Cc1ccc(Cl)c(N=Cc2ccccc2O)c1 | 147 to 148
O=C1C=CC(OC2CCCC2)N1 (configuration not stated) | 81 to 82
CC(C)(C)OC(=O)N1CCO[C@@H](c2ccc(C(N)=O)cc2)C1 | 179
CC(=O)NC1CCC2C(C1)c1c(OC(C)=O)cc(OC(C)CCCc3ccccc3)cc1N(C)C2C (configuration not stated) | 120 to 122
O=C1NCCc2ccc(O)cc21 | 201 to 203
CCCCCCCCCCCCn1sncc1=O | 68 to 70
CC(=O)OC1CSC(Oc2cccnc2-c2c(C)noc2C)C(OC(C)=O)C1OC(C)=O (configuration not stated) | 68 to 72
N#CN1CCN(c2nn(S(=O)(=O)c3ccccc3)c3cc(Cl)ccc23)CC1 | 179 to 181
Nc1nc(N)nc(N2CCOCC2)n1 | 248 to 250
Cc1cccc2c1CCN(C1CN3CCC1CC3)C2=O (racemic) | > 270
CC(=O)Nc1cccc(C#Cc2ccc([C@@H]3CC[C@@H]4CCCCN43)cc2)c1 (relative stereo) | 161 to 163
CC(C)(C)c1cc(C=Cc2cc(C=Cc3cc(C(C)(C)C)cc(C(C)(C)C)c3)cc(CBr)c2)cc(C(C)(C)C)c1 | 222 to 223
CCN(CC)C(=O)c1ccc(CCCCOCCCCCCN(Cc2ccccc2)CC(O)c2ccc(O)c3[nH]c(=O)ccc23)cc1 (configuration not stated) | 101 to 103
CC(C)(C)c1nnc(NN)s1 | 111 to 112
O=C1CCC2=C(c3ccccc3)c3cc(Cl)ccc3C2N1 (configuration not stated) | 234 to 238
Cc1ccc(NC(=O)c2ccc(CN3CCCCC3)c(C(F)(F)F)c2)cc1-c1ccc2cnncc2c1 | 175 to 177

The remaining lines, values ahead:

melting point [°C] | Compound
102 | O=C(Nc1ccc2ccc(Oc3ccccc3)nc2n1)c1ccoc1
146 to 147 | CC(=O)Nc1c(C#N)cnn1-c1ccc(C)cc1Cl
189 to 191 | CCOC(=O)c1cnn2c1c(S)nc1c(C)nn(C)c12
159 to 160 | Cc1nc(N2C[C@@H](C)N(Cc3ccc(F)cc3)C2=O)sc1C(=O)NCc1cc(F)cc(F)c1
104 to 105 | COc1cc2ncnc(N3CCN(C(=S)NCc4ccc(C(C)(C)C)cc4)CC3)c2cc1OC
135 to 136 | CNC(=O)[C@@H]1O[C@H]1c1ccc(OC)cc1
154 to 155 | CCCCc1c(-c2ccccc2)nc(N)nc1-c1ccccc1
85 to 88 | COC(=O)c1cccc(-c2cn(C)cc(-c3ccc(C)cc3)c2=O)c1
143 to 144 | COc1ccc(C2(C(=O)Oc3ccc(C(=O)NO)cc3)CCCC2)cc1
113 to 114 | CCOC(=O)CC(=O)c1cc(F)c(S(=O)(=O)CC)nc1Nc1ccc(F)cc1F
135 to 136 | CC(C)(Oc1ccc(CCC(=O)c2ccc(-c3ccc(OC(F)(F)F)cc3)s2)c(Cl)c1Cl)C(=O)O
117 to 119 | COC(=O)/C=C/c1ccc(-c2ccc(C(C)C)cc2)s1
195 to 196 | CCOC(=O)c1c(Cn2ccnn2)nc2cc(OC)c(OC)cc2c1-c1ccc(OC)c(OC)c1
36 to 38 | CCOC(=O)Cc1ccc(OCCCCl)c(OC)c1
163 to 164 | COC(=O)c1ccc2cc(-c3ccc(OC)cc3)oc2c1
216 | CCOC(=O)C1=CC(C(=O)c2cc(Cl)ccc2O)=CN2CCc3c([nH]c4ccccc34)C12C(=O)OCC (configuration not stated)
222 to 225 | CCCC(=O)c1c[nH]c2c(OC)csc2c1=O
96 to 99 | CC(C)CC(=O)Nc1cccc(-c2ccnc3c(-c4cccc5cccnc45)cnn23)c1
267 to 268 | CNC(=O)Cc1nn(-c2ccccc2)c(=O)c2c1c1c(Br)cccc1n2C
87 to 88 | CC(=O)c1cc(-c2ccc(C(F)(F)F)cc2)oc1C
119 to 121 | Cc1nn(Cc2ccccc2)c(C)c1CC(=O)O
125 to 130 | COc1cc(C(=O)NS(=O)(=O)c2ccccc2)ccc1Cc1cn(C)c2ccc(NC(=O)OC3CCCC3)cc12
146 to 148 | CCOC(=O)c1cn2c(ccc3ccc(OC)cc32)n1
155 | COc1ccccc1Sc1c(Cl)nc(C)nc1NS(=O)(=O)c1ccc(C(C)(C)C)cc1
107 to 108 | Cc1oc(-c2ccccc2)nc1COc1ccc(CON=C(CC(=O)O)c2ccccc2)cc1
66 | CCOC(=O)c1ccc(C2=CCCCC2)cc1
71 to 73 | CC(=NOc1ccc(F)cc1)c1cc(Cl)ccc1NS(=O)(=O)C(F)(F)F
229 | CCOC(=O)c1nc2ccc(OC)cc2[nH]c1=O
146 to 147 | Cc1nnc(-c2ccc3occ(-c4cccc(OC(F)(F)F)c4)c3n2)o1
97 | COc1ccc2c(CN(C)C)cc(=O)oc2c1
